Reference: patent US12215129B2, “Antibacterial cyclopeptides targeting acinetobacter and other gram-negative pathogens” (priority 2020, dated 2025)
≈ marks a conversion by molar mass, not a printed value. Where “and” joins values, the source holds several entries; their conditions need not be identical. Equal entries are not always repeated. Where two headings read alike, the source gives them in different places. Marks after values point to notes of the source that are not given here. Starred links: 1 amine or outer side, 2 acyl side, 3 side chain; linkers in the order of their positions; H or OH if unused. Positions of bridges follow the written chain, without caps; N, C: chain ends. Non-standard residues stand in square brackets, D forms with d. Residues, ends and D or L forms follow the SMILES beside them. *: point of attachment. dAsp(3R-OH) = N[C@@H](C(=O)O)[C@@H](O)C(=O)O; X1 = NC[C@H](O)[C@@H](N[*:1])C(=O)[*:2]; X2 = CCC(C)(O)[C@H](N[*:1])C(=O)[*:2]; d(aIle) = CC[C@H](C)[C@@H](N)C(=O)O; Myristoyl = CCCCCCCCCCCCCC(=O)*; dOrn = NCCC[C@@H](N)C(=O)O; hSer = N[C@@H](CCO)C(=O)O

Assays:
Escherichia coli = type: cell-based
[1] = system: Klebsiella pneumoniae (ATCC BAA-1705); type: cell-based
A. baylyi = type: cell-based, Acinetobacter baylyi
A. baumannii ATCC 17978 = test: Thigh infection neutropenic mouse model, efficacy (CFU/thigh); type: in vivo, Acinetobacter baumannii; conditions: for Decrease (%) / Δ / CFU/thigh Time post inoculation 2, 26 h / Log (CFU/thigh) Time post inoculation 2, 26 h / CFU/thigh Time post inoculation 2, 26 h, Mean / Log (CFU/thigh) Time post inoculation 2, 26 h, Mean / Dilution (CFU/plate) 0 / Dilution (CFU/plate) 10^1 / Dilution (CFU/plate) 10^2 / Dilution (CFU/plate) 10^3 / Dilution (CFU/plate) 10^4 / Dilution (CFU/plate) 10^5 / Dilution (CFU/plate) 10^6: BID, q12h; for Decrease (%) / Δ / CFU/thigh Time post inoculation 2, 26 h / Log (CFU/thigh) Time post inoculation 2, 26 h / CFU/thigh Time post inoculation 2, 26 h, Mean / Log (CFU/thigh) Time post inoculation 2, 26 h, Mean: 26 h; for Decrease (%): decrease in counts compared to the vehicle group; for Δ: difference in bacterial counts relative to the baseline group (2 h initial counts); for CFU/thigh Time post inoculation 2, 26 h / Log (CFU/thigh) Time post inoculation 2, 26 h: individual animals; for CFU/thigh Time post inoculation 2, 26 h, Mean / Log (CFU/thigh) Time post inoculation 2, 26 h, Mean: mean of 5 animals; for Dilution (CFU/plate) 0 / Dilution (CFU/plate) 10^1 / Dilution (CFU/plate) 10^2 / Dilution (CFU/plate) 10^3 / Dilution (CFU/plate) 10^4 / Dilution (CFU/plate) 10^5 / Dilution (CFU/plate) 10^6: raw data; for Dilution (CFU/plate) 0: dilution 0, individual animals; for Dilution (CFU/plate) 10^1: dilution 10^1, individual animals; for Dilution (CFU/plate) 10^2: dilution 10^2, individual animals; for Dilution (CFU/plate) 10^3: dilution 10^3, individual animals; for Dilution (CFU/plate) 10^4: dilution 10^4, individual animals; for Dilution (CFU/plate) 10^5: dilution 10^5, individual animals; for Dilution (CFU/plate) 10^6: dilution 10^6, individual animals
[2] = system: Acinetobacter baumannii (ATCC 19606)
[3] = system: Enterococcus faecalis (ATCC 29212)
[4] = human, in vivo; cited from earlier work
[5] = system: clinical A. baumannii complex isolates

Compound: CCCCCCCCCCCCCC(=O)N[C@H](CCCN)C(=O)N[C@@H](CO)C(=O)N[C@H](C(=O)N[C@@H](C(=O)N[C@@H](C(=O)N[C@@H]1C(=O)NCC(=O)N[C@@H](C(C)(O)CC)C(=O)N[C@H]([C@@H](C)CC)C(=O)N[C@@H](CCO)C(=O)N[C@@H](C)C(=O)N[C@H]([C@@H](C)CC)C(=O)N[C@@H](CCC(=O)O)C(=O)O[C@@H]1C)[C@@H](O)CN)[C@@H](O)C(=O)O)C(C)C (stereo partly drawn) [Compound 1, Turnercyclamycin A] (Myristoyl-[dOrn]SV[dAsp(3R-OH)][X1]TG[X2][d(aIle)][hSer]A[d(aIle)]E; ester 6-C)
- MIC90 (Escherichia coli): 1 µg/mL (≈ 0.636 µM)
- MIC90 [1]: 2 µg/mL (≈ 1.27 µM)
- sensitivity of Δ1ptE A. baylyi strain (A. baylyi; at 8 μg/mL): still sensitive
- MIC against A. baylyi compared with A. baumannii (A. baylyi; nonpathogenic relative A. baylyi): same MIC
- nature of growth inhibition (A. baylyi; plating of inhibited wells from A. baylyi broth cultures): bactericidal, not bacteriostatic
- Decrease (%) (A. baumannii ATCC 17978; 6.25 mg/kg IV): 27%
- Δ (A. baumannii ATCC 17978; 6.25 mg/kg IV): 2.27
- CFU/thigh Time post inoculation 2, 26 h (A. baumannii ATCC 17978; 6.25 mg/kg IV): 4.59 × 10^7 CFU/thigh and 3.63 × 10^7 CFU/thigh and 4.62 × 10^7 CFU/thigh and 6.93 × 10^7 CFU/thigh and 7.71 × 10^7 CFU/thigh
- Log (CFU/thigh) Time post inoculation 2, 26 h (A. baumannii ATCC 17978; 6.25 mg/kg IV): 7.66 Log (CFU/thigh) (2×) and 7.56 Log (CFU/thigh) and 7.84 Log (CFU/thigh) and 7.89 Log (CFU/thigh)
- CFU/thigh Time post inoculation 2, 26 h, Mean (A. baumannii ATCC 17978; 6.25 mg/kg IV): 5.50 × 10^7 CFU/thigh
- Log (CFU/thigh) Time post inoculation 2, 26 h, Mean (A. baumannii ATCC 17978; 6.25 mg/kg IV): 7.72 Log (CFU/thigh)
- Dilution (CFU/plate) 0 (A. baumannii ATCC 17978; 6.25 mg/kg IV): >300 CFU/plate
- Dilution (CFU/plate) 10^1 (A. baumannii ATCC 17978; 6.25 mg/kg IV): >300 CFU/plate
- Dilution (CFU/plate) 10^2 (A. baumannii ATCC 17978; 6.25 mg/kg IV): >300 CFU/plate
- Dilution (CFU/plate) 10^3 (A. baumannii ATCC 17978; 6.25 mg/kg IV): >300 CFU/plate
- Dilution (CFU/plate) 10^4 (A. baumannii ATCC 17978; 6.25 mg/kg IV): 153 CFU/plate and 121 CFU/plate and 154 CFU/plate and 231 CFU/plate and 257 CFU/plate
- Dilution (CFU/plate) 10^5 (A. baumannii ATCC 17978; 6.25 mg/kg IV): 21 CFU/plate and 9 CFU/plate and 16 CFU/plate and 24 CFU/plate and 26 CFU/plate
- Dilution (CFU/plate) 10^6 (A. baumannii ATCC 17978; 6.25 mg/kg IV): 3 CFU/plate (2×) and 1 CFU/plate and 0 CFU/plate and 2 CFU/plate
- decrease in bacterial CFU/thigh (A. baumannii ATCC 17978; 12.5 mg/kg IV twice daily, p<0.05, CFU at 26 hours): 98%
- Decrease (%) (A. baumannii ATCC 17978; 12.5 mg/kg IV): 98%
- Δ (A. baumannii ATCC 17978; 12.5 mg/kg IV): 0.10
- CFU/thigh Time post inoculation 2, 26 h (A. baumannii ATCC 17978; 12.5 mg/kg IV): 5.67 × 10^5 CFU/thigh and 7.02 × 10^6 CFU/thigh and 7.89 × 10^5 CFU/thigh and 1.32 × 10^5 CFU/thigh and 1.35 × 10^4 CFU/thigh
- Log (CFU/thigh) Time post inoculation 2, 26 h (A. baumannii ATCC 17978; 12.5 mg/kg IV): 5.75 Log (CFU/thigh) and 6.85 Log (CFU/thigh) and 5.90 Log (CFU/thigh) and 5.12 Log (CFU/thigh) and 4.13 Log (CFU/thigh)
- CFU/thigh Time post inoculation 2, 26 h, Mean (A. baumannii ATCC 17978; 12.5 mg/kg IV): 1.70 × 10^6 CFU/thigh
- Log (CFU/thigh) Time post inoculation 2, 26 h, Mean (A. baumannii ATCC 17978; 12.5 mg/kg IV): 5.55* Log (CFU/thigh)
- Dilution (CFU/plate) 0 (A. baumannii ATCC 17978; 12.5 mg/kg IV): >300 CFU/plate
- Dilution (CFU/plate) 10^1 (A. baumannii ATCC 17978; 12.5 mg/kg IV): >300 CFU/plate (4×) and 45 CFU/plate
- Dilution (CFU/plate) 10^2 (A. baumannii ATCC 17978; 12.5 mg/kg IV): 189 CFU/plate and >300 CFU/plate and 263 CFU/plate and 44 CFU/plate and 4 CFU/plate
- Dilution (CFU/plate) 10^3 (A. baumannii ATCC 17978; 12.5 mg/kg IV): 12 CFU/plate and 234 CFU/plate and 24 CFU/plate and 2 CFU/plate and 0 CFU/plate
- Dilution (CFU/plate) 10^4 (A. baumannii ATCC 17978; 12.5 mg/kg IV): 0 CFU/plate (2×) and 1 CFU/plate and 28 CFU/plate and 2 CFU/plate
- Dilution (CFU/plate) 10^5 (A. baumannii ATCC 17978; 12.5 mg/kg IV): 0 CFU/plate (4×) and 1 CFU/plate
- Dilution (CFU/plate) 10^6 (A. baumannii ATCC 17978; 12.5 mg/kg IV): 0 CFU/plate
- clearing of bacterial CFU/thigh (A. baumannii ATCC 17978; 25 mg/kg IV twice daily, CFU at 26 hours): 99.99%
- Decrease (%) (A. baumannii ATCC 17978; 25 mg/kg IV): 100%
- Δ (A. baumannii ATCC 17978; 25 mg/kg IV): −1.65^#
- CFU/thigh Time post inoculation 2, 26 h (A. baumannii ATCC 17978; 25 mg/kg IV): 5.91 × 10^3 CFU/thigh and 7.68 × 10^3 CFU/thigh and 8.76 × 10^3 CFU/thigh and 1.38 × 10^4 CFU/thigh and 1.89 × 10^3 CFU/thigh
- Log (CFU/thigh) Time post inoculation 2, 26 h (A. baumannii ATCC 17978; 25 mg/kg IV): 3.77 Log (CFU/thigh) and 3.89 Log (CFU/thigh) and 3.94 Log (CFU/thigh) and 4.14 Log (CFU/thigh) and 3.28 Log (CFU/thigh)
- CFU/thigh Time post inoculation 2, 26 h, Mean (A. baumannii ATCC 17978; 25 mg/kg IV): 7.61 × 10^3 CFU/thigh
- Log (CFU/thigh) Time post inoculation 2, 26 h, Mean (A. baumannii ATCC 17978; 25 mg/kg IV): 3.80* Log (CFU/thigh)
- Dilution (CFU/plate) 0 (A. baumannii ATCC 17978; 25 mg/kg IV): 197 CFU/plate and 256 CFU/plate and 292 CFU/plate and >300 CFU/plate and 63 CFU/plate
- Dilution (CFU/plate) 10^1 (A. baumannii ATCC 17978; 25 mg/kg IV): 26 CFU/plate and 32 CFU/plate and 29 CFU/plate and 46 CFU/plate and 8 CFU/plate
- Dilution (CFU/plate) 10^2 (A. baumannii ATCC 17978; 25 mg/kg IV): 3 CFU/plate (2×) and 1 CFU/plate (2×) and 4 CFU/plate
- Dilution (CFU/plate) 10^3 (A. baumannii ATCC 17978; 25 mg/kg IV): 0 CFU/plate
- Dilution (CFU/plate) 10^4 (A. baumannii ATCC 17978; 25 mg/kg IV): 0 CFU/plate
- Dilution (CFU/plate) 10^5 (A. baumannii ATCC 17978; 25 mg/kg IV): 0 CFU/plate
- Dilution (CFU/plate) 10^6 (A. baumannii ATCC 17978; 25 mg/kg IV): 0 CFU/plate
- MIC90 [2]: 8 µg/mL (≈ 5.09 µM)
- MIC ([2]; ATCC 19606): 8 µg/mL (≈ 5.09 µM)
- MIC90 [3]: >64 µg/mL
- MIC90 (Staphylococcus aureus): >64 µg/mL
- decrease of Staphylococcus aureus growth (Staphylococcus aureus): 50%

Compound: CCCCCCCCCC(=O)N[C@@H](Cc1c[nH]c2ccccc12)C(=O)N[C@H](CC(N)=O)C(=O)N[C@@H](CC(=O)O)C(=O)N[C@@H]1C(=O)NCC(=O)N[C@@H](CCCN)C(=O)N[C@@H](CC(=O)O)C(=O)N[C@H](C)C(=O)N[C@@H](CC(=O)O)C(=O)NCC(=O)N[C@H](CO)C(=O)N[C@@H]([C@H](C)CC(=O)O)C(=O)N[C@@H](CC(=O)c2ccccc2N)C(=O)O[C@@H]1C [Daptomycin]
- Half Life [4]: ~8 h
- Vss [4]: ~0.1 L/kg
- clearance [4]: ~9 mL/h/kg

Compound: Colistin [reference compound]
- Decrease (%) (A. baumannii ATCC 17978; 30 mg/kg SC): 100%
- Δ (A. baumannii ATCC 17978; 30 mg/kg SC): −2.73^#
- CFU/thigh Time post inoculation 2, 26 h (A. baumannii ATCC 17978; 30 mg/kg SC): 1.77 × 10^3 CFU/thigh and 5.73 × 10^3 CFU/thigh and 5.64 × 10^3 CFU/thigh and 1.98 × 10^3 CFU/thigh and 3.57 × 10^3 CFU/thigh
- Log (CFU/thigh) Time post inoculation 2, 26 h (A. baumannii ATCC 17978; 30 mg/kg SC): 3.25 Log (CFU/thigh) and 3.76 Log (CFU/thigh) and 3.75 Log (CFU/thigh) and 3.30 Log (CFU/thigh) and 3.55 Log (CFU/thigh)
- CFU/thigh Time post inoculation 2, 26 h, Mean (A. baumannii ATCC 17978; 30 mg/kg SC): 3.74 × 10^3 CFU/thigh
- Log (CFU/thigh) Time post inoculation 2, 26 h, Mean (A. baumannii ATCC 17978; 30 mg/kg SC): 3.52* Log (CFU/thigh)
- Dilution (CFU/plate) 0 (A. baumannii ATCC 17978; 30 mg/kg SC): 59 CFU/plate and 191 CFU/plate and 188 CFU/plate and 66 CFU/plate and 119 CFU/plate
- Dilution (CFU/plate) 10^1 (A. baumannii ATCC 17978; 30 mg/kg SC): 3 CFU/plate and 20 CFU/plate and 21 CFU/plate and 8 CFU/plate and 13 CFU/plate
- Dilution (CFU/plate) 10^2 (A. baumannii ATCC 17978; 30 mg/kg SC): 0 CFU/plate (3×) and 1 CFU/plate (2×)
- Dilution (CFU/plate) 10^3 (A. baumannii ATCC 17978; 30 mg/kg SC): 0 CFU/plate
- MIC [2]: 2 µg/mL
- MIC ([5]; ARUP ABC 1): 4 µg/mL
- MIC ([5]; ARUP ABC 2): 4 µg/mL
- MIC ([5]; ARUP ABC 3): >32 µg/mL
- MIC ([5]; CDC AB282): 1 µg/mL
- MIC ([5]; CDC AB286): 1 µg/mL
- MIC ([5]; CDC AB299): 2 µg/mL
- MIC ([5]; CDC AB302): 2 µg/mL
- MIC ([5]; CDC AB303): >32 µg/mL
- MIC ([5]; CDC AB307): 8 µg/mL
